Reference: patent US20240384268A1, “Oligonucleotides” (Hudson Institute of Medical Research, priority 2021, published 2024)
In the oligonucleotide strings, read from the 5' end, every base follows the letter of its sugar. An asterisk marks phosphorothioate; unmarked linkages are phosphodiester. Other units and linkages are bracketed, terminal groups are in braces. A string of capitals states the bases alone. d = 2'-deoxy (DNA); m = 2'-O-methyl

target: T1, human TLR9 (Homo sapiens, UniProt Q9NR96); assay: HEK-TLR9 NF-κB-luciferase reporter, ODN2006 stimulation; type: cell-based; conditions: HEK-TLR9; 500 nM ASO 45 min, then 200 nM ODN2006 overnight; percentage of ODN2006 only
T1 construct: HA; host or cells: 293XL-hTLR9-HA (HEK293)
T1 sequence (Q9NR96 26-1032): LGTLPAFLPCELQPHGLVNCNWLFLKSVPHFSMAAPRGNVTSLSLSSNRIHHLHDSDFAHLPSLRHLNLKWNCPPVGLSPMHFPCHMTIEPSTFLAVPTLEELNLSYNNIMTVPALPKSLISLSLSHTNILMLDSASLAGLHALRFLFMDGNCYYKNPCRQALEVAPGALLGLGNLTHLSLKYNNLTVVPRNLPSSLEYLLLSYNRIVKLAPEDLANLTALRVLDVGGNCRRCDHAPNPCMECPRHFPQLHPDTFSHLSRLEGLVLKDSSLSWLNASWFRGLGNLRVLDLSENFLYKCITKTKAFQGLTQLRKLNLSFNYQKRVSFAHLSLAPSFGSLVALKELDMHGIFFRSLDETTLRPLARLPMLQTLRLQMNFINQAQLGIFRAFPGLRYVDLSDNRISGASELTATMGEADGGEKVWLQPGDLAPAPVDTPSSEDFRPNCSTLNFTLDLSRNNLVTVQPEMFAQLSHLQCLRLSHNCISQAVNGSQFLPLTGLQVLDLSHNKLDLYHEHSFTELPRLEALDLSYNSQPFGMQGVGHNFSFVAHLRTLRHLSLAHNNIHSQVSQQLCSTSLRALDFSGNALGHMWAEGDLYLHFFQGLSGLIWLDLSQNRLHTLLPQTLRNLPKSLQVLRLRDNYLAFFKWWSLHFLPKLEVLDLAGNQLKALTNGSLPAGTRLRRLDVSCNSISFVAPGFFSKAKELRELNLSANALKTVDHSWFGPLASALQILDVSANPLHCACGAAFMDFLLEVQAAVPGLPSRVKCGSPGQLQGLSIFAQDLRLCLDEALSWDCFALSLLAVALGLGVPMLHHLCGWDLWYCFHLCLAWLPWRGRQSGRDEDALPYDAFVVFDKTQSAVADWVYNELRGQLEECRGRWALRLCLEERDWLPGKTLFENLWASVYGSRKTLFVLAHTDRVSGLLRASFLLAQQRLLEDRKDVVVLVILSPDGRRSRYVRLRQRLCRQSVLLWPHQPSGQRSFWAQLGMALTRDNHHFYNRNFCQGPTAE

Substance	TLR9-500 nM: averaged NF-κB-Luciferase relative to ODN2006 [%]
mG*mU*mC*mC*mC*A*T*C*C*C*T*T*C*T*G*mC*mU*mG*mC*mC (GUCCCATCCCTTCTGCUGCC; antisense; sugars from the 5' end m5 d10 m5, all phosphorothioate, methylation of C not given here) [[LINC-PINT]102]	101.22
mG*mU*mC*mC*mG*T*A*C*C*T*C*C*A*C*C*mC″mA*mC*mC*mG [[LINC-PINT]727.1]	58.15
mG*mU*mC*mU*mC*C*T*C*C*A*C*A*C*C*C*mU*mU*mC*mU*mC (mG*mU*mC*mU*mC*dC*dT*dC*dC*dA*dC*dA*dC*dC*dC*mU*mU*mC*mU*mC; antisense) [[LINC-PINT]126]	77.09
mG*mU*mU*mC*mA*G*T*C*A*G*A*T*C*G*C*mU*mG*mG*mG*mA (mG*mU*mU*mC*mA*dG*dT*dC*dA*dG*dA*dT*dC*dG*dC*mU*mG*mG*mG*mA) [[LINC-PINT]412 KL]	77.50
mU*mA*mA*mA*mA*T*A*A*G*G*G*G*A*A*T*mA*mG*mG*mG*mG (mU*mA*mA*mA*mA*dT*dA*dA*dG*dG*dG*dG*dA*dA*dT*mA*mG*mG*mG*mG) [[CDKN2B-AS1]80]	64.58
mU*mC*mC*mC*mA*A*C*T*C*T*T*C*T*A*A*mC*mU*mC*mG*mU (mU*mC*mC*mC*mA*dA*dC*dT*dC*dT*dT*dC*dT*dA*dA*mC*mU*mC*mG*mU; antisense) [[LINC-PINT]1284 KL]	86.73
mU*mC*mC*mC*mA*T*C*C*C*T*T*C*T*G*C*mU*mG*mA*mC*mA (UCCCATCCCTTCTGCUGACA; sugars from the 5' end m5 d10 m5, all phosphorothioate, methylation of C not given here) [[LINC-PINT]101]	59.80
mU*mC*mU*mC*mC*A*T*G*T*C*C*C*A*G*G*mC*mC*mU*mC*mC (mU*mC*mU*mC*mC*dA*dT*dG*dT*dC*dC*dC*dA*dG*dG*mC*mC*mU*mC*mC; antisense) [[CDKN2B-AS1]2230]	118.93
mU*mC*mU*mC*mU*C*T*G*G*T*C*C*C*A*T*mC*mC*mC*mU*mU (mU*mC*mU*mC*mU*dC*dT*dG*dG*dT*dC*dC*dC*dA*dT*mC*mC*mC*mU*mU; antisense) [[LINC-PINT]110]	74.25
mU*mC*mU*mC*mU*G*G*T*C*C*C*A*T*C*C*mC*mU*mU*mC*mU (UCUCUGGTCCCATCCCUUCU; antisense; sugars from the 5' end m5 d10 m5, all phosphorothioate, methylation of C not given here) [[LINC-PINT]108]	100.51
mU*mC*mU*mG*mG*T*C*C*C*A*T*C*C*C*T*mU*mC*mU*mG*mC (UCUGGTCCCATCCCTUCUGC; antisense; sugars from the 5' end m5 d10 m5, all phosphorothioate, methylation of C not given here) [[LINC-PINT]106]	56.60
mU*mG*mA*mC*mA*A*A*A*C*A*A*T*A*A*T*mA*mA*mC*mA*mG (mU*mG*mA*mC*mA*dA*dA*dA*dC*dA*dA*dT*dA*dA*dT*mA*mA*mC*mA*mG) [[LINC-PINT]384]	53.61
mU*mG*mA*mC*mA*T*T*T*C*G*T*G*G*C*T*mC*mC*mU*mA*mC (mU*mG*mA*mC*mA*dT*dT*dT*dC*dG*dT*dG*dG*dC*dT*mC*mC*mU*mA*mC; antisense) [[LINC-PINT]523 KL]	118.29
mU*mG*mA*mU*mG*A*T*G*C*T*T*G*C*A*G*mG*mA*mG*mG*mC (mU*mG*mA*mU*mG*dA*dT*dG*dC*dT*dT*dG*dC*dA*dG*mG*mA*mG*mG*mC) [[LINC-PINT|283.1]	65.76
mU*mG*mG*mC*mG*T*A*G*T*T*T*C*T*C*T*mU*mC*mC*mU*mC (mU*mG*mG*mC*mG*dT*dA*dG*dT*dT*dT*dC*dT*dC*dT*mU*mC*mC*mU*mC; antisense) [[LINC-PINT]937.1]	79.89
mU*mG*mU*mG*mA*A*A*A*G*A*T*T*A*T*C*mU*mU*mC*mU*mU (UGUGAAAAGATTATCUUCUU; sugars from the 5' end m5 d10 m5, all phosphorothioate, methylation of C not given here) [[CDKN2B-AS1]2137]	62.16
mU*mG*mU*mU*mU*C*C*C*C*G*G*A*G*A*G*mC*mA*mA*mU*mG (UGUUUCCCCGGAGAGCAAUG; antisense; sugars from the 5' end m5 d10 m5, all phosphorothioate, methylation of C not given here) [[LINC-PINT]501 KL]	71.47
mU*mU*mA*mA*mA*T*A*A*T*C*T*A*G*T*T*mU*mG*mA*mA*mG (UUAAATAATCTAGTTUGAAG; sugars from the 5' end m5 d10 m5, all phosphorothioate, methylation of C not given here) [[CDKN2B-AS1]132]	98.18
mU*mU*mA*mG*mC*T*C*C*T*T*G*C*C*T*C*mG*mU*mU*mC*mC (mU*mU*mA*mG*mC*dT*dC*dC*dT*dT*dG*dC*dC*dT*dC*mG*mU*mU*mC*mC; antisense) [[LINC-PINT] 1222]	78.17
mU*mU*mC*mU*mC*T*C*T*G*G*T*C*C*C*A*mU*mC*mC*mC*mU (mU*mU*mC*mU*mC*dT*dC*dT*dG*dG*dT*dC*dC*dC*dA*mU*mC*mC*mC*mU; antisense) [[LINC-PINT]111]	98.01
mU*mU*mG*mG*mC*C*T*G*T*G*G*A*T*G*C*mU*mU*mU*mG*mU (mU*mU*mG*mG*mC*dC*dT*dG*dT*dG*dG*dA*dT*dG*dC*mU*mU*mU*mG*mU) [[LINC-PINT]2673.1]	40.71
mU*mU*mG*mU*mG*A*A*A*A*G*A*T*T*A*T*mC*mU*mU*mC*mU (mU*mU*mG*mU*mG*dA*dA*dA*dA*dG*dA*dT*dT*dA*dT*mC*mU*mU*mC*mU) [[CDKN2B-AS1]2138]	61.15
mU*mU*mU*mG*mA*A*A*T*T*C*A*G*A*A*G*mA*mU*mU*mU*mG (mU*mU*mU*mG*mA*dA*dA*dT*dT*dC*dA*dG*dA*dA*dG*mA*mU*mU*mU*mG) [[LINC PINT|2690]	54.33
